Test results: patent US10111874B2, “Combination therapies for treatment of cancer” (Araxes Pharma LLC, priority 2014, dated 2018)

Target: T1, KRAS G12C 1-169, his-tagged protein, GDP-loaded (Homo sapiens, UniProt P01116, G12C)
T1 construct: KRAS G12C 1-169, his-tagged protein, GDP-loaded
Assay: Biochemical assay: covalent binding to KRAS G12C analyzed by mass spectrometry; further: test concentration or dose not given here
Details: compounds 1-47, measured at 24 h

T1 sequence (P01116 1-169 isoform P01116-2 G12C): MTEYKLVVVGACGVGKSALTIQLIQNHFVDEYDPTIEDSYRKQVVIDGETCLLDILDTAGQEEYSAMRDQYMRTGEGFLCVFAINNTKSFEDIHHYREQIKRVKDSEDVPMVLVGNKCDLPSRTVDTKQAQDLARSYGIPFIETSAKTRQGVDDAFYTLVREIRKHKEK

Compound	Binding %
C=CC(=O)N1CCN(c2ncnc3cc(Cl)c(-c4cccnc4)cc23)CC1 [Compound I-20, 1-(4-(7-chloro-6-(pyridin-3-yl)quinazolin-4-yl)piperazin-1-yl)prop-2-en-1-one]	+ (+indicates binding activity from 5% to 25%)
C=CC(=O)N1CCN(c2ncnc3cc(Cl)c(-c4ccc(O)cc4)cc23)CC1 [Compound I-12, 1-(4-(7-chloro-6-(4-hydroxyphenyl)quinazolin-4-yl)piperazin-1-yl)prop-2-en-1-one]	+ (+indicates binding activity from 5% to 25%)

Same assay, conditions: compounds 48-246, measured at 2 h

Compound	Binding %
C=CC(=O)N1CCN(c2ncnc3c(F)c(-c4ccccc4C(F)(F)F)c(Cl)cc23)CC1 [Compound I-209, 1-(4-(6-chloro-8-fluoro-7-(2-(trifluoromethyl)phenyl)quinazolin-4-yl)piperazin-1-yl)prop-2-en-1-one]	++++ (++++indicates binding activity greater than 75%)
C=CC(=O)N1CCN(c2ncnc3cc(-c4cccc(F)c4)c(Cl)cc23)CC1 [Compound I-84, 1-(4-(6-chloro-7-(3-fluorophenyl)quinazolin-4-yl)piperazin-1-yl)prop-2-en-1-one]	++ (++indicates binding activity greater than 25% and up to 50%)
C=CC(=O)N1CCN(c2nccc3cc(Cl)ccc23)CC1C#N (centres unmarked) [Compound I-61, 1-acryloyl-4-(6-chloroisoquinolin-1-yl)piperazine-2-carbonitrile]	+ (+indicates binding activity from 5% to 25%)
C=CC(=O)N1CCN(c2ncnc3cc(-c4ccc(F)cc4F)c(Cl)cc23)CC1C#N (centres unmarked) [Compound I-145, 1-acryloyl-4-(6-chloro-7-(2,4-difluorophenyl)quinazolin-4-yl)piperazine-2-carbonitrile]	++++ (++++indicates binding activity greater than 75%)
C=CC(=O)N1CCN(c2ncnc3cc(Cl)c(-c4ccc(Cl)cc4)cc23)CC1CC#N (centres unmarked) [Compound I-70, 2-(1-acryloyl-4-(7-chloro-6-(4-chlorophenyl)quinazolin-4-yl)piperazin-2-yl)acetonitrile]	+++ (+++indicates binding activity greater than 50% and up to 75%)
C=CC(=O)N1CCN(c2ncnc3cc(-c4ccc5[nH]ncc5c4)c(Cl)cc23)CC1 [Compound I-144, 1-(4-(6-chloro-7-(1H-indazol-5-yl)quinazolin-4-yl)piperazin-1-yl)prop-2-en-1-one]	+ (+indicates binding activity from 5% to 25%)
C=CC(=O)N1CCN(c2ncnc3cc(-c4cccnc4)c(Cl)cc23)CC1 [Compound I-90, 1-(4-(6-chloro-7-(pyridin-3-yl)quinazolin-4-yl)piperazain-1-yl)prop-2-en-1-one]	+ (+indicates binding activity from 5% to 25%)
C=CC(=O)N1CCN(c2ncnc3cc(-c4cccc(C#N)c4)c(Cl)cc23)CC1 [Compound I-130, 3-(4-(4-acryloylpiperazin-1-yl)-6-chloroquinazolin-7-yl)benzonitrile]	+ (+indicates binding activity from 5% to 25%)
C=CC(=O)N1CCN(c2ncnc3cc(Cl)c(-c4cccs4)cc23)CC1C#N (centres unmarked) [Compound I-51, 1-acryoyl-4-(7-chloro-6-(thiophen-2-yl)quinazaolin-4-yl)piperazine-2-carbonitrile]	++++ (++++indicates binding activity greater than 75%)
C=CC(=O)N1CCN(c2ncnc3cc(-c4ccccc4CC#N)c(Cl)cc23)CC1 [Compound I-168, 2-(2-(4-(4-acryloylpiperazin-1-yl)-6-chloroquinazolin-7-yl)phenyl)acetonitrile]	++ (++indicates binding activity greater than 25% and up to 50%)
C=CC(=O)N1CCN(c2c(C#N)cnc3cc(-c4ccccc4O)c(Cl)cc23)CC1 [Compound I-182, 4-(4-acryloylpiperazin-1-yl)-6-chloro-7-(2-hydroxyphenyl)quinoline-3-carbonitrile]	+++ (+++indicates binding activity greater than 50% and up to 75%)
C=CC(=O)N1CCN(c2ncnc3cc(-c4ccc(Cl)cc4O)c(Cl)cc23)CC1 [Compound I-117, 1-(4-(6-chloro-7-(4-chloro-2-hydroxyphenyl)quinazolin-4-yl)piperazin-1-yl)prop-2-en-1-one]	+++ (+++indicates binding activity greater than 50% and up to 75%)
C=CC(=O)N1CCN(c2ncnc3cc(-c4c(C)ccc5[nH]ncc45)c(Cl)cc23)CC1 [Compound I-140, 1-(4-(6-chloro-7-(5-methyl-1H-indazol-4-yl)quinazolin-4-yl)piperazin-1-yl)prop-2-en-1-one]	+++ (+++indicates binding activity greater than 50% and up to 75%)
C=CC(=O)N1CCN(c2ncnc3c(F)c(-c4cc(O)ccc4Cl)c(Cl)cc23)CC1 [Compound I-217, 1-(4-(6-chloro-7-(2-chloro-5-hydroxyphenyl)-8-fluoroquinazolin-4-yl)piperazin-1-yl)prop-2-en-1-one]	+++ (+++indicates binding activity greater than 50% and up to 75%)
C=CC(=O)N1CCN(c2ncnc3cc(-c4c(O)ccc5ccccc45)c(C(F)(F)F)cc23)CC1 [Compound I-218, 1-(4-(7-(2-hydroxynaphthalen-1-yl)-6-(trifluoromethyl)quinazolin-4-yl)piperazin-1-yl)prop-2-en-1-one]	+++ (+++indicates binding activity greater than 50% and up to 75%)
C=CC(=O)N1CCN(c2ncnc3cc(-c4ccccc4F)c(C#N)cc23)CC1 [Compound I-137, 4-(4-acryloylpiperazin-1-yl)-7-(2-fluorophenyl)quinazoline-6-carbonitrile]	+ (+indicates binding activity from 5% to 25%)

Same assay, conditions: compounds 247-342, measured at 30 min

Compound	Binding %
C=CC(=O)N1CCN(c2ncnc3c(F)c(-c4c(C)cccc4Cl)c(Cl)cc23)CC1 [Compound I-290, 1-(4-(6-chloro-7-(2-chloro-6-methylphenyl)-8-fluoroquinazolin-4-yl)piperazin-1-yl)prop-2-en-1-one]	+++ (+++indicates binding activity greater than 50% and up to 75%)
C=CC(=O)N1CCN(c2ncnc3c(F)c(-c4c(C)c(C)cc5cn[nH]c45)c(Cl)cc23)CC1 [Compound I-255, 1-(4-(6-chloro-7-(5,6-dimethyl-1H-indazol-7-yl)-8-fluoroquinaolin-4-yl)piperazin-1-yl)prop-2-en-1-one]	+++ (+++indicates binding activity greater than 50% and up to 75%)
C=CC(=O)N1CCN(c2ncnc3c(F)c(-c4c(C)ccc5[nH]ncc45)c(Cl)cc23)CC1 [Compound 334, 1-(4-(6-chloro-8-fluoro-7-(5-methyl-1H-indazol-4-yl)quinazolin-4-yl)piperazin-1-yl)prop-2-en-1-one]	++++ (++++indicates binding activity greater than 75%)
C=CC(=O)N1CCN(c2cnnc3cc(-c4c(O)cccc4F)c(C(F)(F)F)cc23)CC1 [Compound I-279, 1-(4-(7-(2-fluoro-6-hydroxyphenyl)-6-(trifluoromethyl)cinnolin-4-yl)piperazin-1-yl)prop-2-en-1-one]	+++ (+++indicates binding activity greater than 50% and up to 75%)

Same assay, conditions: determined at 2 hrs

Compound	Binding %
C=CC(=O)N1CC(N2CCN(C(=O)CNc3cc(CC)c(Cl)cc3O)CC2)C1 [II-55, 1-(3-(4-(2-(4-chloro-5-ethyl-2-hydroxyphenylamino)acetyl)piperazin-1-yl)azetidin-1-yl)prop-2-en-1-one]	++ (++indicates binding activity greater than 20%)
C=CC(=O)N1CC(N2CCN(C(=O)CCc3cc(C4CC4)c(Cl)cc3O)CC2)C1 [II-58, 1-(3-(4-(3-(4-Chloro-5-cyclopropyl-2-hydroxyphenyl)propanoyl)piperazin-1-yl)azetidin-1-yl)prop-2-en-1-one]	+ (+indicates binding activity from 5% to 20%)
C=CC(=O)N1CC(N2CCN(C(=O)CNc3cc(C4(C)CC4)c(Cl)cc3O)CC2)C1 [II-64, 1-(3-(4-(2-((4-Chloro-2-hydroxy-5-(1-methylcyclopropyl)phenyl)amino)acetyl)piperazin-1-yl)azetidin-1-yl)prop-2-en-1-one]	++ (++indicates binding activity greater than 20%)
C=CC(=O)N1CCN(C(=O)c2cc(-c3ccc(Cl)cc3)c(Cl)cc2O)CC1C#N (centres unmarked) [III-37, 1-acryloyl-4-(4′,6-dichloro-4-hydroxybiphenylcarbonyl)piperazine-2-carbonitrile]	++ (++indicates binding activity greater than 20%)
C=CC(=O)N1CC(N2CCN(C(=O)Cn3ccc4c(Cl)c(Cl)cc(OC)c43)CC2)C1 [II-75, 1-(3-(4-(2-(4,5-dichloro-7-methoxy-1H-indol-1-yl)acetyl)piperazin-1-yl)azetidin-1-yl)prop-2-en-1-one]	+ (+indicates binding activity from 5% to 20%)

Same assay, conditions: determined at 24 hrs

Compound	Binding %
C=CC(=O)N1CC(N2CCN(C(=O)CNc3cc(O)cc(Cl)c3)CC2)C1 [II-33, 1-(3-(4-(2-(3-chloro-5-hydroxyphenylamino)-acetyl)piperazin-1-yl)azetidin-1-yl)prop-2-en-1-one]	+ (+indicates binding activity from 5% to 15%)
C=CC(=O)N1CC(N2CCN(C(=O)CNc3cc(Br)c(Cl)cc3O)CC2)C1 [II-18, 1-(3-(4-(2-(5-bromo-4-chloro-2-hydroxyphenyl-amino)acetyl)piperazin-1-yl)azetidin-1-yl)prop-2-en-1-one]	++++ (++++indicates binding activity greater than 50%)
C=CC(=O)N1CC(N2CCN(C(=O)CN3CC(=O)Nc4ccccc43)CC2)C1 [II-42, 4-(2-(4-(1-acryloylazetidin-3-yl)piperazin-1-yl)-2-oxoethyl)-3,4-dihydroquinoxalin-2(1H)-one]	+ (+indicates binding activity from 5% to 15%)
C=CC(=O)N1CC(N2CCN(C(=O)CNc3cc(C4CC4)c(Cl)cc3O)CC2)C1 [II-35, 1-(3-(4-(2-(4-chloro-5-cyclopropyl-2-hydroxyphenyl-amino)acetyl)piperazin-1-yl)azetidin-1-yl)prop-2-en-1-one]	++++ (++++indicates binding activity greater than 50%)
C=CC(=O)NC1CN(C2CN(C(=O)CNc3cc(Br)c(Cl)cc3O)C2)C1 [II-36, N-(1′-(2-(5-bromo-4-chloro-2-hydroxyphenylamino)-acetyl)-1,3′-biazetidin-3-yl)acrylamide]	++++ (++++indicates binding activity greater than 50%)
